# Measurements reported in the supplement of paper PMC10307832.
# What was measured:
# Experiment in all cases: relative viability (nuclei count vs DMSO), 5 days (fraction); higher = more cells survive
# MK-2206 + Vorinostat = compound: NC1(c2ccc(-c3nc4ccn5c(=O)[nH]nc5c4cc3-c3ccccc3)cc2)CCC1 [MK-2206] + O=C(CCCCCCC(=O)Nc1ccccc1)NO [Vorinostat] (partner 1 µM)
# In short: (§1)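 The day after seeding in 1536-well plates, lung cancer cell lines were treated by pin tool with a single drug, or with a fixed anchor-drug dose together with five library-drug doses (not always all listed) in √10 steps. After 5 days, a combined fix-and-stain solution (final 0.05% Triton X-100, 1% formaldehyde, 1 ug/ml Hoechst) was added. Nuclei counted on 4× images gave relative viability as treated counts over vehicle counts, reported as the median of duplicate plates.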
# Pictilisib + Alpelisib = compound: CS(=O)(=O)N1CCN(Cc2cc3nc(-c4cccc5[nH]ncc45)nc(N4CCOCC4)c3s2)CC1 [Pictilisib] + Cc1nc(NC(=O)N2CCC[C@H]2C(N)=O)sc1-c1ccnc(C(C)(C)C(F)(F)F)c1 [Alpelisib] (partner 2 µM)
# In short: as §1
# Pictilisib + Linsitinib = compound: CS(=O)(=O)N1CCN(Cc2cc3nc(-c4cccc5[nH]ncc45)nc(N4CCOCC4)c3s2)CC1 [Pictilisib] + C[C@]1(O)C[C@@H](c2nc(-c3ccc4ccc(-c5ccccc5)nc4c3)c3c(N)nccn32)C1 [Linsitinib] (partner 1 µM)
# In short: as §1
# Pictilisib + Palbociclib = compound: CS(=O)(=O)N1CCN(Cc2cc3nc(-c4cccc5[nH]ncc45)nc(N4CCOCC4)c3s2)CC1 [Pictilisib] + CC(=O)c1c(C)c2cnc(Nc3ccc(N4CCNCC4)cn3)nc2n(C2CCCC2)c1=O [Palbociclib] (partner 0.5 µM)
# In short: as §1
# MK-2206 + Pemetrexed = compound: NC1(c2ccc(-c3nc4ccn5c(=O)[nH]nc5c4cc3-c3ccccc3)cc2)CCC1 [MK-2206] + Nc1nc2[nH]cc(CCc3ccc(C(=O)N[C@@H](CCC(=O)O)C(=O)O)cc3)c2c(=O)[nH]1 [Pemetrexed] (partner 0.2 µM)
# In short: as §1
Cell Line,relative viability (MK-2206 + Vorinostat; first compound 0.01 µM),relative viability (MK-2206 + Vorinostat; first compound 0.03162 µM),relative viability (MK-2206 + Vorinostat; first compound 0.3162 µM),relative viability (MK-2206 + Vorinostat; first compound 1 µM),relative viability (Pictilisib + Alpelisib; first compound 0.02 µM),relative viability (Pictilisib + Alpelisib; first compound 0.06325 µM),relative viability (Pictilisib + Alpelisib; first compound 0.6325 µM),relative viability (Pictilisib + Alpelisib; first compound 2 µM),relative viability (Pictilisib + Linsitinib; first compound 0.02 µM),relative viability (Pictilisib + Linsitinib; first compound 0.06325 µM),relative viability (Pictilisib + Linsitinib; first compound 0.6325 µM),relative viability (Pictilisib + Linsitinib; first compound 2 µM),relative viability (Pictilisib + Palbociclib; first compound 0.02 µM),relative viability (Pictilisib + Palbociclib; first compound 0.06325 µM),relative viability (Pictilisib + Palbociclib; first compound 0.6325 µM),relative viability (Pictilisib + Palbociclib; first compound 2 µM),relative viability (MK-2206 + Pemetrexed; first compound 0.01 µM),relative viability (MK-2206 + Pemetrexed; first compound 0.03162 µM),relative viability (MK-2206 + Pemetrexed; first compound 0.3162 µM),relative viability (MK-2206 + Pemetrexed; first compound 1 µM)
NCI-H1395,0.713,0.667,0.574,0.576,1.11,1.03,0.855,0.531,1.15,1.11,0.836,0.597,0.657,0.696,0.515,0.412,0.807,0.869,0.79,0.812
NCI-H23,0.6,0.508,0.569,0.372,0.728,0.77,0.827,0.487,0.632,0.641,0.605,0.423,0.505,0.439,0.351,0.186,0.713,0.559,0.651,0.64
LOU-NH91,0.938,0.933,0.887,0.826,0.742,0.741,0.697,0.585,1.02,0.918,0.798,0.557,0.524,0.546,0.563,0.514,0.366,0.406,0.345,0.356
NCI-H2009,0.759,0.739,0.708,0.766,1.19,1.17,1.13,1.07,1.21,1.18,1.16,0.799,0.149,0.175,0.165,0.125,1.05,1.01,1.05,1.03
NCI-H358,0.659,0.697,0.646,0.729,0.831,0.981,0.769,0.595,0.681,0.685,0.464,0.393,0.116,0.165,0.121,0.115,0.169,0.154,0.186,0.162
NCI-H2126,0.718,0.789,0.608,0.623,0.776,0.712,0.679,0.564,0.692,0.692,0.609,0.5,0.357,0.317,0.32,0.341,0.708,0.653,0.61,0.701
NCI-H1437,0.879,0.846,0.964,0.821,0.932,0.912,0.68,0.566,0.975,1.05,0.662,0.447,0.309,0.337,0.401,0.216,0.321,0.325,0.334,0.258
SK-LU-1,0.818,0.778,0.823,0.735,1.16,1.29,0.895,0.713,1.21,1.13,0.987,0.628,0.401,0.382,0.307,0.31,0.964,0.963,1.04,0.962
NCI-H838,0.705,0.714,0.647,0.654,1.04,0.968,1.02,0.467,1.05,0.891,0.891,0.448,0.191,0.206,0.174,0.124,0.245,0.227,0.255,0.201
NCI-H1755,0.774,0.698,0.582,0.636,0.924,0.939,0.892,0.506,1.02,0.975,0.906,0.53,0.447,0.417,0.458,0.323,0.405,0.404,0.353,0.374
NCI-H2228,0.741,0.857,0.588,0.386,0.674,0.665,0.507,0.35,0.533,0.637,0.31,0.184,0.64,1.04,0.492,0.282,0.333,0.307,0.336,0.318
NCI-H1915,0.567,0.511,0.483,0.534,1.08,1.11,0.998,1.07,1.07,1.06,1.12,1.07,0.524,0.542,0.5,0.471,0.487,0.42,0.473,0.494
NCI-H2347,0.641,0.581,0.645,0.555,1.1,1.09,0.912,0.873,1.02,1.08,1.1,0.933,0.448,0.398,0.433,0.363,0.408,0.44,0.433,0.45
HARA,0.391,0.539,0.455,0.59,0.766,0.888,0.768,0.494,0.979,1.06,0.803,0.353,0.305,0.269,0.187,0.161,0.269,0.23,0.265,0.217
NCI-H2085,0.693,0.754,0.751,0.653,1.01,0.959,0.74,0.419,0.86,0.835,0.786,0.334,0.465,0.462,0.362,0.267,0.866,1.02,0.953,0.841
NCI-H650,0.455,0.414,0.345,0.428,1.05,1.15,1,0.888,0.979,1.03,0.809,0.633,0.323,0.308,0.271,0.265,0.979,0.913,0.818,1.02

Cell Line,relative viability (MK-2206 + Vorinostat; first compound 0.01 µM),relative viability (MK-2206 + Vorinostat; first compound 0.03162 µM),relative viability (MK-2206 + Vorinostat; first compound 0.3162 µM),relative viability (MK-2206 + Vorinostat; first compound 1 µM),relative viability (Pictilisib + Alpelisib; first compound 0.02 µM),relative viability (Pictilisib + Alpelisib; first compound 0.06325 µM),relative viability (Pictilisib + Alpelisib; first compound 0.6325 µM),relative viability (Pictilisib + Alpelisib; first compound 2 µM),relative viability (Pictilisib + Linsitinib; first compound 0.02 µM),relative viability (Pictilisib + Linsitinib; first compound 0.06325 µM),relative viability (Pictilisib + Linsitinib; first compound 0.6325 µM),relative viability (Pictilisib + Linsitinib; first compound 2 µM),relative viability (Pictilisib + Palbociclib; first compound 0.02 µM),relative viability (Pictilisib + Palbociclib; first compound 0.06325 µM),relative viability (Pictilisib + Palbociclib; first compound 0.6325 µM),relative viability (Pictilisib + Palbociclib; first compound 2 µM),relative viability (MK-2206 + Pemetrexed; first compound 0.01 µM),relative viability (MK-2206 + Pemetrexed; first compound 0.03162 µM),relative viability (MK-2206 + Pemetrexed; first compound 0.3162 µM),relative viability (MK-2206 + Pemetrexed; first compound 1 µM)
NCI-H1993,0.765,0.962,0.611,0.504,0.656,0.712,0.663,0.625,0.774,0.71,0.636,0.655,0.573,0.622,0.497,0.37,0.727,0.555,0.516,0.477
EMC-BAC-2,0.468,0.442,0.442,0.392,0.754,0.766,0.721,0.577,0.809,0.787,0.716,0.538,0.502,0.498,0.401,0.337,0.435,0.377,0.439,0.407
NCI-H2087,0.469,1.1,0.791,0.862,1.22,1.06,1.02,0.954,1.12,1.02,0.918,0.944,0.199,0.255,0.19,0.162,0.623,0.624,0.667,0.684
NCI-H441,0.76,0.707,0.701,0.565,0.735,0.833,0.698,0.541,0.58,0.581,0.414,0.325,0.216,0.192,0.152,0.148,0.256,0.238,0.255,0.249
LXF-289,0.736,0.797,0.867,0.78,1.08,1.07,1.06,0.822,0.989,0.95,0.973,0.771,0.584,0.588,0.621,0.398,0.886,0.873,0.956,1.17
NCI-H661,0.759,0.737,0.767,0.681,0.598,0.794,0.579,0.373,0.527,0.428,0.455,0.233,0.446,0.384,0.347,0.299,0.986,0.91,0.876,0.877
PC-3 [JPC-3],0.796,0.691,0.826,0.755,1,1.09,1.04,0.976,0.985,0.945,0.97,0.893,0.539,0.494,0.534,0.456,1.12,1.24,1.23,1.07
HCC-366,0.341,0.448,0.26,0.254,0.452,0.386,0.335,0.174,0.776,0.448,0.256,0.0873,0.434,0.305,0.133,0.0473,0.154,0.166,0.302,0.266
NCI-H1651,0.568,0.583,0.597,0.461,0.969,0.906,0.765,0.516,0.922,0.953,0.817,0.616,0.518,0.499,0.496,0.378,0.562,0.575,0.621,0.513
NCI-H1355,0.598,0.667,0.541,0.49,0.828,0.741,0.865,0.505,0.759,0.678,0.744,0.402,0.405,0.356,0.293,0.217,1.04,1.02,1.02,1.04
LC-2-ad,0.663,0.72,0.753,0.665,0.918,0.828,0.634,0.484,0.848,0.801,0.326,0.36,0.486,0.532,0.298,0.265,0.282,0.254,0.28,0.25
NCI-H1944,0.536,0.547,0.556,0.433,0.817,0.776,0.732,0.472,1.09,1.38,0.786,0.643,0.322,0.235,0.226,0.183,0.612,0.575,0.603,0.576
HCC-827,0.791,0.847,0.816,0.323,1.02,0.829,0.892,0.518,0.938,1.01,1.03,0.711,0.517,0.415,0.234,0.188,0.272,0.242,0.268,0.274
COR-L23,0.462,0.52,0.426,0.408,0.821,0.804,0.8,0.572,0.914,0.886,0.878,0.387,0.335,0.349,0.273,0.208,0.184,0.187,0.195,0.172
NCI-H3122,0.924,0.969,0.944,0.871,0.749,0.723,0.658,0.469,0.988,0.963,0.681,0.354,0.181,0.194,0.176,0.139,0.202,0.197,0.203,0.193
